From patent publication US8278268B2, “Combination therapy comprising glucose reabsorption inhibitors and PPAR modulators” (Ortho-McNeil Pharmaceutical, Inc., priority 2001, dated 2012)

How the values were obtained:
[1] = tested on: db/db mice; assay: Example 4: 32 day oral dosing of T-1095 +/− MCC-555 in db/db mice; assay type: in vivo; conditions: for % HbA1C +/− SEM / Body Weight Change (g) ± SEM / Glucose / Insulin / Liver Weight (g) ± SEM / TG / Heart Weight (g) ± SEM: 32 day oral dosing
Description: (§1) To examine the effect of T-1095 in combination with a PPARγ agonist, male db/db mice (6 weeks of age/Jackson Labs, […]), a PPARγ agonist such as MCC-555 (3 mg/kg-30 mg/kg), T-1095 (3-100 mg/kg), or MCC-555 plus T-1095. Mice (n=8 animals/group) received the test compounds or vehicle by oral gavage in a volume of 10 ml/kg of body weight. Body weight was recorded on day 1, prior to dosing, and twice a week for the duration of the study. One hour after the final dose, mice were weighed and anesthetized with CO2/O2 (70:30). Mice were then bled by retro-orbital sinus puncture into 2 mL heparinized polypropylene tubes on ice. Mice were then fasted overnight and bled by tail-clip prior to receiving a glucose challenge (2 g/kg p.o). Blood was collected at 30, 60.120, and 180 minutes after the challenge. Animals were then sacrificed and epididymal fat pads, livers, and hearts were excised, weighed and frozen for histological examination. Plasma samples were then assayed for glucose, HbA1c, insulin, and triglycerides.
Livers and hearts were excised, weighed and frozen.

[2] = tested on: db/db mice; assay: Example 4: plasma glucose AUC following an oral glucose challenge; assay type: in vivo
Description: as §1

[3] = tested on: female db/db mice; assay: Example 1: 11 day oral dosing of rosiglitazone +/− T-1095 in db/db mice; assay type: in vivo; conditions: mean
Description: (§2) Mice (n=8 animals/group) received the test compounds or vehicle by oral gavage in a volume of 10 ml/kg of body weight. Body weight was recorded on day 1, prior to dosing, and days 4, 8 and 11. Eighteen hours after the final dose, mice were weighed and anesthetized with CO2/O2 (70:30). Mice were then bled by retro-orbital sinus puncture into 2 mL heparinized polypropylene tubes on ice.
Plasma samples were then assayed for glucose, insulin, and triglycerides using Trinder reagent (Sigma Diagnostics), Elisa (Alpco) and GPO-Trinder (Sigma Diagnostics), respectively.
(§3) Livers were excised, weighed and frozen. […] Heart weight can be measured in an analogous manner.

[4] = tested on: female db/db mice; assay: Example 2: 11 day oral dosing of T-1095 +/− rosiglitazone in db/db mice; assay type: in vivo; conditions: for Body Weight Change / Liver Weight: −Rosi, mean
Description: as §2, with “ice. Plasma samples were then assayed for glucose, insulin, and triglycerides using Trinder reagent (Sigma Diagnostics), Elisa (Alpco) and GPO-Trinder (Sigma Diagnostics), respectively. Livers and hearts were excised, weighed and frozen.” for “ice.”
as §3

[5] = tested on: diabetic rodent models (STZ-induced diabetic rat, yellow KK mice, db/db mice, Zucker Diabetic Fatty rats and GK rats); conditions: cited from earlier work
[6] = tested on: Na^+-glucose co-transporters located in chorionic membrane of the intestine and the kidney; conditions: cited from earlier work
[7] = subcutaneous daily administration; cited from earlier work

O=C1NC(=O)C(Cc2ccc3cc(OCc4ccccc4F)ccc3c2)S1 (centres unmarked) [MCC-555, 5-((6-((2-fluorophenyl)methoxy)-2-naphthalenyl)methyl)-2,4-thiazolidinedione, reference compound]
% HbA1C +/− SEM ([1]; 3 mpk MCC-555): 4.50 ± 0.17 % | Body Weight Change (g) ± SEM ([1]; 3 mpk MCC-555): 9.14 ± 1.5 g | Glucose ([1]; 3 mpk MCC-555): 201.3 ± 24 mg/dL | Insulin ([1]; 3 mpk MCC-555): 31.7 ± 4.7 ng/dL | Liver Weight (g) ± SEM ([1]; 3 mpk MCC-555): 2.36 ± 0.22 g | TG ([1]; 3 mpk MCC-555): 90.20 ± 4.5 mg/dL | % HbA1C +/− SEM ([1]; 10 mpk MCC-555): 4.10 ± 0.15 % | Body Weight Change (g) ± SEM ([1]; 10 mpk MCC-555): 9.53 ± 0.9 g | Glucose ([1]; 10 mpk MCC-555): 155.1 ± 22 mg/dL | Heart Weight (g) ± SEM ([1]; 10 mpk MCC-555): 0.13 ± 0.01 g | Insulin ([1]; 10 mpk MCC-555): 11.9 ± 1.4 ng/dL | Liver Weight (g) ± SEM ([1]; 10 mpk MCC-555): 1.91 ± 0.17 g | TG ([1]; 10 mpk MCC-555): 73.90 ± 5.4 mg/dL | % HbA1C +/− SEM ([1]; 30 mpk MCC-555): 4.11 ± 0.14 % | Body Weight Change (g) ± SEM ([1]; 30 mpk MCC-555): 8.0 ± 0.7 g | Glucose ([1]; 30 mpk MCC-555): 111.5 ± 8.0 mg/dL | Heart Weight (g) ± SEM ([1]; 30 mpk MCC-555): 0.12 ± 0.01 g | Insulin ([1]; 30 mpk MCC-555): 5.40 ± 0.4 ng/dL | Liver Weight (g) ± SEM ([1]; 30 mpk MCC-555): 1.68 ± 0.1 g | TG ([1]; 30 mpk MCC-555): 55.30 ± 4.7 mg/dL | change in heart weight ([1]; MCC-555 alone, in this study): did not produce a significant change in heart weight | AUC glucose % of Vehicle ± SEM ([2]; 3 mpk MCC-555, 32 day oral dosing): 74.11 ± 7.38 % of Vehicle | AUC glucose % of Vehicle ± SEM ([2]; 10 mpk MCC-555, 32 day oral dosing): 71.05 ± 8.37 % of Vehicle | AUC glucose % of Vehicle ± SEM ([2]; 30 mpk MCC-555, 32 day oral dosing): 48.03 ± 4.37 % of Vehicle

COC(=O)OCC1OC(Oc2cc(C)cc(O)c2C(=O)CCc2ccc3occc3c2)C(O)C(O)C1O (centres unmarked) [T-1095]
Body Weight Change ([3]; T1095 100 mpk): 3.96 g | Liver Weight ([3]; T1095 100 mpk): 1.88 g | Glucose ([3]; T-1095 100 mpk): ***405.13 mg/dL | Insulin ([3]; T-1095 100 mpk): 93.88 ng/mL | TG ([3]; T-1095 100 mpk): 248.88 mg/dL | Glucose ([4]; 3 mpk T-1095, mean): 286 mg/dL | Insulin ([4]; 3 mpk T-1095, mean): **22.5 ng/ml | TG ([4]; 3 mpk T-1095, mean): 263 mg/dL | Glucose ([4]; 10 mpk T-1095, mean): **263 mg/dL | Insulin ([4]; 10 mpk T-1095, mean): 30.1 ng/mL | TG ([4]; 10 mpk T-1095, mean): 256 mg/dL | Glucose ([4]; 30 mpk T-1095, mean): 370 mg/dL | Insulin ([4]; 30 mpk T-1095, mean): 23.9 ng/mL | TG ([4]; 30 mpk T-1095, mean): 315 mg/dL | Glucose ([4]; 100 mpk T-1095, mean): **242 mg/dL | Insulin ([4]; 100 mpk T-1095, mean): 49.1 ng/mL | TG ([4]; 100 mpk T-1095, mean): **243 mg/dL | Body Weight Change ([4]; T-1095 3 mpk): 3.0 g | Liver Weight ([4]; T-1095 3 mpk): 1.63 g | Body Weight Change ([4]; T-1095 10 mpk): 4.3 g | Liver Weight ([4]; T-1095 10 mpk): 1.87 g | Body Weight Change ([4]; T-1095 30 mpk): 2.4 g | Liver Weight ([4]; T-1095 30 mpk): 1.75 g | Body Weight Change ([4]; T-1095 100 mpk): 2.3 g | Liver Weight ([4]; T-1095 100 mpk): 1.73 g | % HbA1C +/− SEM ([1]; 3 mpk T-1095): 6.10 ± 0.16% | Body Weight Change (g) ± SEM ([1]; 3 mpk T-1095): -6.09 ± 1.9 g | Glucose ([1]; 3 mpk T-1095): 490.3 ± 36 mg/dL | Heart Weight (g) ± SEM ([1]; 3 mpk T-1095): 0.16 ± 0.02 g | Insulin ([1]; 3 mpk T-1095): 10.7 ± 2.2 ng/dL | Liver Weight (g) ± SEM ([1]; 3 mpk T-1095): 1.51 ± 0.1 g | TG ([1]; 3 mpk T-1095): 210.90 ± 24 mg/dL | % HbA1C +/− SEM ([1]; 10 mpk T-1095): 6.00 ± 0.29% | Body Weight Change (g) ± SEM ([1]; 10 mpk T-1095): -0.99 ± 1.9 g | Glucose ([1]; 10 mpk T-1095): 413.1 ± 50 mg/dL | Heart Weight (g) ± SEM ([1]; 10 mpk T-1095): 0.13 ± 0.01 g | Insulin ([1]; 10 mpk T-1095): 11.4 ± 3.8 ng/dL | Liver Weight (g) ± SEM ([1]; 10 mpk T-1095): 1.58 ± 0.08 g | TG ([1]; 10 mpk T-1095): 178.10 ± 21 mg/dL | % HbA1C +/− SEM ([1]; 30 mpk T-1095): 5.38 ± 0.23% | Body Weight Change (g) ± SEM ([1]; 30 mpk T-1095): -2.44 ± 4.3 g | Glucose ([1]; 30 mpk T-1095): 380.6 ± 40 mg/dL | Heart Weight (g) ± SEM ([1]; 30 mpk T-1095): 0.14 ± 0.01 g | Insulin ([1]; 30 mpk T-1095): 17.7 ± 5.1 ng/dL | Liver Weight (g) ± SEM ([1]; 30 mpk T-1095): 1.57 ± 0.09 g | TG ([1]; 30 mpk T-1095): 197.20 ± 26 mg/dL | % HbA1C +/− SEM ([1]; 100 mpk T-1095): 4.96 ± 0.24 % | Body Weight Change (g) ± SEM ([1]; 100 mpk T-1095): -4.83 ± 2.9 g | Glucose ([1]; 100 mpk T-1095): 367.2 ± 42 mg/dL | Heart Weight (g) ± SEM ([1]; 100 mpk T-1095): 0.14 ± 0.01 g | Insulin ([1]; 100 mpk T-1095): 25.5 ± 6.2 ng/dL | Liver Weight (g) ± SEM ([1]; 100 mpk T-1095): 1.64 ± 0.11 g | TG ([1]; 100 mpk T-1095): 151.20 ± 17 mg/dL | AUC glucose % of Vehicle ± SEM ([2]; 3 mpk T-1095, 32 day oral dosing): 95.75 ± 8.45 % of Vehicle | AUC glucose % of Vehicle ± SEM ([2]; 10 mpk T-1095, 32 day oral dosing): 76.6 ± 6.85 % of Vehicle | AUC glucose % of Vehicle ± SEM ([2]; 30 mpk T-1095, 32 day oral dosing): 73.69 ± 5.7 % of Vehicle | AUC glucose % of Vehicle ± SEM ([2]; 100 mpk T-1095, 32 day oral dosing): 49.1 ± 3.21 % of Vehicle | pro-drug conversion ([5]; in vivo, liver): converted to its active form T-1095A in the liver | oral glucose tolerance test and hyperinsulinemic euglycemic clamp ([5]; in vivo, po): improvement of glucose tolerance and the reduction of insulin resistance | adverse signs during treatment ([5]; in vivo): no observed sign of adding weight, infection in the urinary tracts, electrolyte imbalance in plasma, changes in food intake, acute hypoglycemic shock nor pathological changes in the kidney | elevated blood glucose levels ([5]; oral administration, rodent models of IDDM and NIDDM): suppress elevated blood glucose levels | fed and fasting blood glucose levels and HbA1c ([5]; treatment for 3 weeks to 6 months, diabetic rodent models): reduced both fed and fasting blood glucose levels and HbA1c | hyperinsulinemia, hypertriglyceridemia, microalbuminuria ([5]; yellow KK mice and other diabetic mice models): decrease in the hyperinsulinemia, hypertriglyceridemia, and the development of microalbuminuria

O=C(CCc1ccc(O)cc1)c1c(O)cc(O)cc1O[C@@H]1O[C@H](CO)[C@@H](O)[C@H](O)[C@H]1O [phlorizin]
inhibition of Na+-glucose co-transporters [6]: inhibits Na^+-glucose co-transporters | plasma glucose level [7]: the glucose level in a plasma is controlled at a normal level for a long time
